The text below walks through data of US4024256A, “Method and composition for treating urinary tract infections” (priority 1975, dated 1977).

“Also recorded” adds a separate entry of the source. Read-outs that look alike come from different tables or passages of the source.

In one series the test system is Proteus species. As to the kind of experiment: static study in synthetic urine: inhibition of alkalinization by Proteus species. Type of series: cell-based. The note with it: methenamine 0.9 mg/ml. The protocol: (§1) Static studies were conducted to illustrate the synergistic effect achieved in accordance with the present invention through the combined employment of a source of methenamine, i.e., methenamine itself and a source of hydroxamate groups, i.e., acetohydroxamic acid. In order to achieve reproducibility of results with large quantities or urine required for these studies a synthetic urine was formulated based on the proportion of solutes found in the urine from normal human subjects. The composition of such urine was as follows: Brain heart infusion (BHI) broth in a final concentration of 5% was added to support bacterial growth. The pH of the synthetic urine prior to addition of the BHI broth was 5.7 - 5.8. […] In these tests the methenamine was utilized in a final concentration of 0.9 milligrams per milliliter. […] Dally and […], 1969, Analytical BioChem 28:13-21. […] These concentrations which were selected in the static studies were concentrations which would be achievable in the urine of patients with normal renal function. […] At each pH level a set of four tubes was obtained, with these tubes being as follows: 1. Urine alone (control); 2. Urine plus methenamine; 3. Urine plus acetohydroxamic acid; and 4. Urine plus acetohyroxamic acid plus methenamine. […] At varying time intervals aliquots were removed for pH determination and bacterial enumeration by serial tenfold dilution.

The test system of series [1] is Proteus rettgeri. The series is described as follows: static study in synthetic urine: viable bacteria, Proteus rettgeri (FIG. 2). Type of series: cell-based. The note with it: methenamine 0.9 mg/ml. The protocol: as §1
Series [2] concerns Proteus rettgeri. The series is described as follows: dynamic study resembling a Proteus infected human bladder (FIG. 3). Type of series: cell-based. As to conditions: methenamine 0.9 mg/ml. The protocol:
Dynamic studies were conducted to further illustrate the synergistic effect associated with the combined presence of a source of methenamine, i.e., methenamine itself and a source of hyroxamate groups, i.e., acetohydroxamic acid in the urine. […] Utilizing a multicassetts roller pump, urine of a pH of 5.85 was pumped at 40 milliliters per hour from three reservoir flasks into three reaction chambers. […] An aqueous solution of 18 milligrams per milliliter of methenamine at a pH of 7.5 was pumped into reaction chambers 1 and 3 at a rate of two milliliters per hour yielding a final concentration of methenamine of 0.9 milligrams per milliliter. […] The reaction chambers contained gently rotating magnetic stirrers and were kept in a warm bath at 37° C. […] At 4 - 6 hour intervals the volume of urine in each reaction chamber was recorded, the pH of each reaction chamber was determined and serial dilutions were carried out for bacterial enumeration.

Series [3] relates to Proteus. The series is described as follows: preliminary investigations in the dynamic system. Type of series: cell-based. The note with it: methenamine 0.9 mg/ml. From the text:
Utilizing a multicassetts roller pump, urine of a pH of 5.85 was pumped at 40 milliliters per hour from three reservoir flasks into three reaction chambers. […] An aqueous solution of 18 milligrams per milliliter of methenamine at a pH of 7.5 was pumped into reaction chambers 1 and 3 at a rate of two milliliters per hour yielding a final concentration of methenamine of 0.9 milligrams per milliliter. […] The reaction chambers contained gently rotating magnetic stirrers and were kept in a warm bath at 37° C.

Series [4] has as its system Proteus mirabilis. The series is described as follows: static-dynamic system, bacteriostasis against Proteus mirabilis (Experiments A-J). Type of series: cell-based. The protocol:
In this example in vitro investigations were carried out using a static-dynamic system delineating (1) bacteriostatic dose-response relation for methenamine against Proteus, and (2) a synergistic bacteriostatic dose-response relation for methenamine and acetohydroxamic acid against Proteus. […] The tubes were placed in a bacteriological incubator at 37° C. […] Incubation of the tubes at 37° and sequential dilutions were made a 6 hour intervals for 24 hours. The variables for each of eight experiments are detailed in Table 2. Bacterial colony forming units (cfu) and urine pH were determined at the beginning and at the completion of each six hour incubation. The cfu units present after six hours of incubation are graphed in FIGS. 4-15. […] When bacteriostatis was absent, the number of cfu after six hours of incubation was equal to or greater than the number of cfu at the beginning of incubation. A strain of Proteus mirabilis isolated from the urine of patients with urinary tract infections was used in most experiments. Overnight growth in brain heart infusion (BHI) broth regularly produced 10^9 cfu/ml. The overnight culture was centrifuged at 3000 rpm for 20 minutes. The supernatant was discharged, and the bacterial pellet was resuspended in an equal volume of synthetic urine. The bacteria were resuspended in synthetic urine to prevent differences in pH as the bacteria were inoculated into tubes of synthetic urine. […] The results are illustrated in FIGS. 4-15 which relates respectively to Experiment A-L of Table 2. Each of FIGS. 4-15 represents colony forming units (cfu) present at the completion of six hour incubations. 100-fold dilutions were made prior to initiating subsequent six hour incubations. Each figure also includes a line representative of theoretically perfect bacteriostasis.

Series [5] relates to Proteus. As to the kind of experiment: static-dynamic system, bacteriostasis against Proteus, statements over all experiments. In kind it is cell-based, Proteus mirabilis, Proteus rettgeri, Proteus morgani. As to conditions: methenamine 0.1 mg/ml, acidic urine, 10^4 - 10^7 per ml. The protocol: In this example in vitro investigations were carried out using a static-dynamic system delineating (1) bacteriostatic dose-response relation for methenamine against Proteus, and (2) a synergistic bacteriostatic dose-response relation for methenamine and acetohydroxamic acid against Proteus. […] The tubes were placed in a bacteriological incubator at 37° C. […] Incubation of the tubes at 37° and sequential dilutions were made a 6 hour intervals for 24 hours. The variables for each of eight experiments are detailed in Table 2. Bacterial colony forming units (cfu) and urine pH were determined at the beginning and at the completion of each six hour incubation. The cfu units present after six hours of incubation are graphed in FIGS. 4-15. […] When bacteriostatis was absent, the number of cfu after six hours of incubation was equal to or greater than the number of cfu at the beginning of incubation. A strain of Proteus mirabilis isolated from the urine of patients with urinary tract infections was used in most experiments. Overnight growth in brain heart infusion (BHI) broth regularly produced 10^9 cfu/ml. The overnight culture was centrifuged at 3000 rpm for 20 minutes. The supernatant was discharged, and the bacterial pellet was resuspended in an equal volume of synthetic urine. […]

Series [6] concerns Proteus mirabilis. The series is described as follows: dynamic model of the urinary tract (FIGS. 16, 17). In kind it is cell-based. The protocol:
This example was carried out using a dynamic model as described in connection with Example 2. […] Proteus species, isolated from the urine of patients with known urinary infection, were maintained in the laboratory by monthly transfer on agar […]. These organisms grew to about 10^9 colony forming units (cfu) per ml after overnight growth at 37° C in brain heart infusion broth (BHI). […] The pH of this synthetic urine was 5.85. […] In this dynamic system urine with or without acetohydroxamic acid was pumped at 48 ml/hr from reservoirs via an auto-analyzer pump into reaction chambers which were incubated in a shaking water bath at 37° C. […] Every six hours the reaction chambers were emptied except for a 5 ml residual, and the sequence was repeated. In these experiments the pH, ammonia concentration and cfu per ml urine were determined for each reaction chamber at the end of each six hour period.

For series [7] the following is noted: cited from earlier work.
For series [8], the system named is urease producing bacteria. The note with it: cited from earlier work.
A further series has as its system bacterial urease. As to conditions: cited from earlier work.

Regarding `C1N2CN3CN1CN(C2)C3` [methenamine, hexamethenamine tetramine], the effect on alkalinization entry is “alkalinization was inhibited in proportion to the initial urine acidity” in the series with Proteus species (between pH 5.3 and 6.5); “only a slight upward drift was observed” in the series on Proteus species (initial pH less than 5.3); “did not alter progressive alkalinization” in the series with Proteus species (pH greater than 6.5). Moreover, the “anti-bacterial effect, dependence on initial pH” value in the series on Proteus rettgeri [1] was “proportional to the initial pH”. Also, the “colony count by the end of the second time period and throughout” value in the series with Proteus rettgeri [2] was “greater than 10^7 per milliliter”. Moreover, in the series with Proteus rettgeri [2], the “number of bacteria, first six hours” value is given as “fell slightly during the first six hours”. In addition, the “pH at the end of each four to eight hour period” value in the series on Proteus rettgeri [2] was “exceeded 8.5”. In addition, the “growth of Proteus and alkalinization of urine versus synthetic urine alone” value with Proteus [3] is “affected growth of Proteus and alkalinization of urine only slightly”. Also, the “bacteriostatic effect in alkaline urine versus acidic urine” value in the series on Proteus mirabilis [4] (alkaline urine (FIGS. 12 and 13; experiments I, J)) is “much less bacteriostatic in alkaline urine”. Also, the bacteriostatic activity result is given as “some bacteriostatic activity; also recorded: mild bacteriostatic effect” in the series with Proteus mirabilis [4] (methenamine 0.05 mg/ml, pH 5.9, 10^4 /ml and 10^5 /ml (Experiments A, B)); “little or no bacteriostatic activity” with Proteus mirabilis [4] (methenamine 0.05 mg/ml, ≥ 10^6 Proteus/ml (FIGS. 4-7)). In addition, the bacteriostasis entry with Proteus mirabilis [4] (methenamine 0.05 mg/ml, ≥10^6 /ml Proteus (Experiments C through H)) is listed as “no bacteriostasis”; in the series on Proteus mirabilis [4] (methenamine 0.2 mg/ml, acidic urine (Experiments E and F)), “bacteriostasis”; with Proteus [5], “bacteriostasis”. Also, the “bacteriostatic effect compared with methenamine 0.1 mg/ml” value in the series with Proteus mirabilis [4] (methenamine 0.2 mg/ml (FIGS. 8, 9)) is listed as “consistently exerted a greater bacteriostatic effect than did methenamine 0.1 mg/ml”. Moreover, the “effect on pH” value was “the pH rapidly became alkaline and remained so throughout” in the series on Proteus mirabilis [6] (lower concentrations of methenamine); “initial tendency for the pH to neutralize in the presence of methenamine alone was overcome by the end of 18-24 hours” with Proteus mirabilis [6] (methenamine alone, 0.5 mg/ml). Moreover, the bacterial growth entry in the series on Proteus mirabilis [6] (methenamine alone 0.5 mg/ml (FIG. 16)) was “slightly inhibited bacterial growth”. Besides, the release of formaldehyde entry in [7] (pH 5.0) is reported as “excellent release of formaldehyde”; in series [7] (pH 5.5), “good release of formaldehyde”; in [7] (pH 6.0), “generally adequate for the treatment of most urinary tract infections”. Moreover, the “conversion and release of formaldehyde” value in series [7] (pH of the urine 6.5) was “insufficient conversion and release of formaldehyde”. In addition, in series [8] (methenamine alone, typical anti-bacterial dosage, alkaline pH), the “effectiveness at alkaline pH” value was “not effective at an alkaline pH”. Further, the “anti-bacterial effect of the methenamine” value in series [8] (pH of the urine reaches 6.5) is listed as “totally diminished”.

With `O=CNO` [formohydroxamic acid], in the series with bacterial urease, the urease inhibiting effect entry is “appear to possess the greatest urease inhibiting effect”.

In the case of `C1N2CN3CN1CN(C2)C3` [methenamine mandelate], the “effect on overcoming the alkalinization of the urine” value in series [8] (urinary infections produced by urease producing bacteria) is “no real effect on overcoming the alkalinization of the urine”.

Turning to `CC(C)C(=O)NO` [isobutyhydroxamic acid], in the series on bacterial urease, the urease inhibiting effect entry is recorded as “appear to possess the greatest urease inhibiting effect”.

Regarding `CCC(=O)NO` [propionohydroxamic acid], the urease inhibiting effect result in the series with bacterial urease is recorded as “appear to possess the greatest urease inhibiting effect”.
